Laboratory results from the NIST ThermoML archive (doi:10.1021/je201014c).
± gives the expanded uncertainty stated by the source.

Details: 101.33 kPa, Liquid; for viscosity: Capillary tube (Ostwald / Ubbelohde) method; for mass density: Vibrating tube method

CN(C)C=O [dimethylformamide]
Details	mass density [kg/m3]	viscosity [mPa·s]
283.15 K	958.096 ± 0.4	1.016 ± 0.0065
288.15 K	953.346 ± 0.4	0.9545 ± 0.0063
293.15 K	948.584 ± 0.4	0.8985 ± 0.006
298.15 K	943.817 ± 0.4	0.8455 ± 0.0058
303.15 K	939.042 ± 0.4	0.799 ± 0.0056
308.15 K	934.255 ± 0.41	0.7553 ± 0.0054
313.15 K	929.458 ± 0.41	0.7172 ± 0.0052
318.15 K	924.65 ± 0.41	0.6826 ± 0.0051
